{
  "source": "patent US20090068653A1",
  "about": "“BIOCHEMICAL AND GENETIC ANALYSIS FOR PREDICTION OF BREAST CANCER RISK” (priority 2006, published 2009)",
  "molecules": {"B1": {"name": "461Asn-462Ile: purified recombinant CYP1A1 variant 461Thr→Asn (protein, UniProt P04798 1-512, looked up, variant T461N)", "Cytochrome P450 1A1": "MLFPISMSATEFLLASVIFCLVFWVIRASRPQVPKGLKNPPGPWGWPLIGHMLTLGKNPHLALSRMSQQYGDVLQIRIGSTPVVVLSGLDTIRQALVRQGDDFKGRPDLYTFTLISNGQSMSFSPDSGPVWAARRRLAQNGLKSFSIASDPASSTSCYLEEHVSKEAEVLISTLQELMAGPGHFNPYRYVVVSVTNVICAICFGRRYDHNHQELLSLVNLNNNFGEVVGSGNPADFIPILRYLPNPSLNAFKDLNEKFYSFMQKMVKEHYKTFEKGHIRDITDSLIEHCQEKQLDENANVQLSDEKIINIVLDLFGAGFDTVTTAISWSLMYLVMNPRVQRKIQEELDTVIGRSRRPRLSDRSHLPYMEAFILETFRHSSFVPFTIPHSTTRDTSLKGFYIPKGRCVFVNQWQINHDQKLWVNPSEFLPERFLTPDGAIDKVLSEKVIIFGMGKRKCIGENIARWEVFLFLAILLQRVEFSVPLGVKVDMTPIYGLTMKHACCEHFQMQLRS"}, "B2": {"name": "461Thr-462Val: purified recombinant CYP1A1 variant 462Ile→Val (protein, UniProt P04798 1-512, looked up, variant I462V)", "Cytochrome P450 1A1": "B1 Cytochrome P450 1A1 with N461T, I462V"}, "B3": {"name": "461Asn-462Val: purified recombinant CYP1A1 variant 461Asn-462Val (protein, UniProt P04798 1-512, looked up, variant T461N I462V)", "Cytochrome P450 1A1": "B1 Cytochrome P450 1A1 with I462V"}, "B4": {"name": "108Val (wt): wild-type COMT enzyme (protein, UniProt P21964 1-271, looked up)", "Catechol O-methyltransferase": "MPEAPPLLLAAVLLGLVLLVVLLLLLRHWGWGLCLIGWNEFILQPIHNLLMGDTKEQRILNHVLQHAEPGNAQSVLEAIDTYCEQKEWAMNVGDKKGKIVDAVIQEHQPSVLLELGAYCGYSAVRMARLLSPGARLITIEINPDCAAITQRMVDFAGVKDKVTLVVGASQDIIPQLKKKYDVDTLDMVFLDHWKDRYLPDTLLLEECGLLRKGTVLLADNVICPGAPDFLAHVRGSSCFECTHYQSFLEYREVVDGLEKAIYKGPGSEAGP"}},
  "key": {"DNA [1]": {"tested_on": "DNA", "settings": "cited from earlier work"}, "renal cancer": {"tested_on": "renal cancer", "settings": "hamster, in vivo; cited from earlier work"}, "renal DNA": {"tested_on": "renal DNA", "settings": "in vivo; cited from earlier work"}, "DNA [2]": {"tested_on": "DNA", "settings": "cited from earlier work", "remark": "listed apart in the source"}, "[3]": {"settings": "single oral doses; cited from earlier work"}, "[4]": {"tested_on": "incidence of breast cancer", "settings": "large study of use to prevent and treat osteoporosis; cited from earlier work"}, "estrogen receptors": {"tested_on": "estrogen receptors", "settings": "preclinical data; cited from earlier work"}, "[5]": {"settings": "cited from earlier work"}, "[6]": {"tested_on": "rat mammary carcinoma induced by dimethylbenzanthracene (DMBA)", "settings": "cited from earlier work"}, "[7]": {"settings": "cited from earlier work", "remark": "listed apart in the source"}, "breast cancer incidence": {"tested_on": "breast cancer incidence", "settings": "women at increased risk of the disease; cited from earlier work"}, "CYP1B1 mRNA": {"tested_on": "CYP1B1 mRNA", "settings": "primary cultures of normal human epidermal keratinocytes, 24-hour treatment; cited from earlier work"}, "COMT": {"tested_on": "COMT", "settings": "cited from earlier work"}},
  "note": "Where a chain is given by its changes, count along the chain named. Structures can show the parent of a compound that is named as a salt. Where two headings read alike, the source gives them in different places.",
  "data": [
    {"molecule": "C[C@]12CC[C@@H]3C4=C(CC[C@H]3[C@@H]1CCC2=O)C(=O)C(=O)C=C4", "note": "[E1-3,4Q]", "values": [
      {"measurement": "levels of depurinating DNA adducts", "setting": "DNA [1]", "result": "two to three orders of magnitude higher"}
    ]},
    {"molecule": "C[C@]12CC[C@@H]3C4=C(CC[C@H]3[C@@H]1CC[C@@H]2O)C(=O)C(=O)C=C4", "note": "[E2-3,4Q]", "values": [
      {"measurement": "levels of depurinating DNA adducts", "setting": "DNA [1]", "result": "two to three orders of magnitude higher"}
    ]},
    {"molecule": "C[C@]12CC[C@@H]3c4ccc(O)c(O)c4CC[C@H]3[C@@H]1CCC2=O", "note": "[4-OHE1]", "values": [
      {"measurement": "induction of renal cancer", "setting": "renal cancer", "result": "induced renal cancer"},
      {"measurement": "levels of oxidized base 8-hydroxy-deoxyguanosine, oxidative DNA damage", "setting": "renal DNA", "result": "significantly increased"}
    ]},
    {"molecule": "C[C@]12CC[C@@H]3c4ccc(O)c(O)c4CC[C@H]3[C@@H]1CC[C@@H]2O", "note": "[4-OHE2]", "values": [
      {"measurement": "induction of renal cancer", "setting": "renal cancer", "result": "induced renal cancer"},
      {"measurement": "levels of oxidized base 8-hydroxy-deoxyguanosine, oxidative DNA damage", "setting": "renal DNA", "result": "significantly increased"},
      {"measurement": "DNA single-strand breaks", "setting": "DNA [2]", "result": "induced DNA single-strand breaks"}
    ]},
    {"molecule": "C[C@]12CC[C@@H]3c4cc(O)c(O)cc4CC[C@H]3[C@@H]1CC[C@@H]2O", "note": "[2-OHE2]", "values": [
      {"measurement": "induction of renal cancer", "setting": "renal cancer", "result": "not"},
      {"measurement": "levels of oxidized base 8-hydroxy-deoxyguanosine, oxidative DNA damage", "setting": "renal DNA", "result": "did not cause oxidative DNA damage"},
      {"measurement": "DNA single-strand breaks", "setting": "DNA [2]", "result": "negligible effect"}
    ]},
    {"molecule": "O=C(c1ccc(OCCN2CCCCC2)cc1)c1c(-c2ccc(O)cc2)sc2cc(O)ccc12", "note": "[Raloxifene]", "values": [
      {"measurement": "apparent oral clearance", "setting": "[3]", "result": 44.1, "unit": "L/kg per hour"},
      {"measurement": "incidence of breast cancer", "setting": "[4]", "result": "reduce the incidence of breast cancer"},
      {"measurement": "estrogen receptor action in uterine and breast tissues", "setting": "estrogen receptors", "result": "estrogen antagonist"}
    ]},
    {"molecule": "O=C(c1ccc(OCCN2CCCCC2)cc1)c1c(-c2ccc(O)cc2)sc2cc(O)ccc12", "note": "[Raloxifene HCl, methanone, [6-hydroxy-2-(4-hydroxyphenyl)benzo[b]thien-3-yl]-[4-[2-(1-piperidinyl)ethoxy]phenyl]-hydrochloride]", "values": [
      {"measurement": "solubility in water", "setting": "[5]", "result": "very slightly soluble"}
    ]},
    {"molecule": "CC/C(=C(\\c1ccccc1)c1ccc(OCCN(C)C)cc1)c1ccccc1", "note": "[Tamoxifen, reference compound]", "values": [
      {"measurement": "induction of rat mammary carcinoma induced by DMBA", "setting": "[6]; rat", "result": "inhibits"},
      {"measurement": "regression of DMBA-induced tumors in situ", "setting": "[6]; rats", "result": "causes the regression"},
      {"measurement": "average steady-state plasma concentration", "setting": "[7]; 10 mg tamoxifen twice daily for 3 months, patients", "result": 120, "unit": "ng/mL"},
      {"measurement": "average steady-state plasma concentration", "setting": "[7]; 20 mg tamoxifen once daily for 3 months", "result": 122, "unit": "ng/mL"},
      {"measurement": "time to steady state concentrations after initiation of therapy", "setting": "[7]; in vivo", "result": "about 4 weeks"},
      {"measurement": "average peak plasma concentration", "setting": "[7]; single oral dose of 20 mg tamoxifen", "result": 40, "unit": "ng/mL"},
      {"measurement": "time of peak plasma concentration after dosing", "setting": "[7]; single oral dose of 20 mg", "result": "approximately 5 hours"},
      {"measurement": "reduction of breast cancer incidence", "setting": "breast cancer incidence", "result": 49, "unit": "%"}
    ]},
    {"molecule": "Clc1cc2c(cc1Cl)Oc1cc(Cl)c(Cl)cc1O2", "note": "[TCDD, 2,3,7,8-tetrachlorodibenzo-p-dioxin]", "values": [
      {"measurement": "increase of CYP1B1 mRNA levels", "setting": "CYP1B1 mRNA", "result": "approximately 100 fold"}
    ]},
    {"molecule": "B1", "values": [
      {"measurement": "Km", "setting": "CYP1A1", "result": 23, "unit": "µM"}
    ]},
    {"molecule": "B2", "values": [
      {"measurement": "Km", "setting": "CYP1A1", "result": 18, "unit": "µM"}
    ]},
    {"molecule": "B3", "values": [
      {"measurement": "Km", "setting": "CYP1A1", "result": 23, "unit": "µM"}
    ]},
    {"molecule": "B4", "values": [
      {"measurement": "Km", "setting": "COMT; reaction 2-OHE2 → 2-MeOE2, COMT", "result": 117, "unit": "µM"},
      {"measurement": "Km", "setting": "COMT; reaction 2-OHE2 → 2-OH-3-MeOE2, COMT", "result": 51, "unit": "µM"},
      {"measurement": "Km", "setting": "COMT; reaction 4-OHE2 → 4-MeOE2, COMT", "result": 24, "unit": "µM"}
    ]}
  ]
}
